The values that follow come from PubChem BioAssay AID1259407 (Chemical Carcinogenesis Research Information System (CCRIS), 2018).

SMILES strings stand for the structures. Calls of active or inactive are those of the source. How the calls were made is not given here.

The series relates to CCRIS mutagenicity, Ames/micronucleus/aberration tests. In words: CCRIS mutagenicity studies.
The mark [1] stands for this setting: Test System: AMES SALMONELLA TYPHIMURIUM, Strain/Indicator: TA97, Metabolic Activation: NONE, Method: STANDARD PLATE.
[2] abbreviates: Test System: AMES SALMONELLA TYPHIMURIUM, Strain/Indicator: TA98, Metabolic Activation: NONE, Method: STANDARD PLATE.
Where [3] appears, read: Test System: AMES SALMONELLA TYPHIMURIUM, Strain/Indicator: TA100, Metabolic Activation: NONE, Method: STANDARD PLATE.
[4] abbreviates: Test System: AMES SALMONELLA TYPHIMURIUM, Strain/Indicator: TA98, Metabolic Activation: NONE, Method: PREINCUBATION
Setting [5] is: Test System: AMES SALMONELLA TYPHIMURIUM, Strain/Indicator: TA100, Metabolic Activation: NONE, Method: PREINCUBATION
[6] abbreviates: Test System: AMES SALMONELLA TYPHIMURIUM, Strain/Indicator: TA98, Metabolic Activation: RAT, LIVER, S-9, AROCLOR 1254, Method: STANDARD PLATE.
Where [7] appears, read: Test System: AMES SALMONELLA TYPHIMURIUM, Strain/Indicator: TA100, Metabolic Activation: RAT, LIVER, S-9, AROCLOR 1254, Method: STANDARD PLATE.

With `CC(C)CCC[C@@H](C)[C@H]1CC[C@H]2[C@@H]3C[C@@H]4O[C@@]45C[C@@H](O)CC[C@]5(C)[C@H]3CC[C@]12C`, the mutagenic call runs as follows: under setting [1], “inactive; negative”; under setting [2], “inactive; negative”; under setting [3], “inactive; negative”; (Test System: AMES SALMONELLA TYPHIMURIUM, Strain/Indicator: TA102, Metabolic Activation: NONE, Method: STANDARD PLATE) “inactive; negative”; (Test System: AMES SALMONELLA TYPHIMURIUM, Strain/Indicator: TA1535, Metabolic Activation: NONE, Method: STANDARD PLATE) “inactive; negative”; (Test System: AMES SALMONELLA TYPHIMURIUM, Strain/Indicator: TA1538, Metabolic Activation: RAT, LIVER, S-9, AROCLOR 1254 (10%), Method: STANDARD PLATE) “active; positive”. Further, the mutagenic call is, setting by setting: (Test System: CHINESE HAMSTER V-79, Strain/Indicator: V-79/6-THIOGUANINE, Metabolic Activation: NONE) “active; positive”; (Test System: CHINESE HAMSTER V-79, Strain/Indicator: V-79/8-AZAGUANINE, Metabolic Activation: NONE) “active; positive”; (Test System: CHINESE HAMSTER V-79, Strain/Indicator: V-79/OUABAIN, Metabolic Activation: NONE) “inactive; negative”; (Test System: MOUSE LYMPHOMA, Strain/Indicator: L5178Y (TK+/TK-), Metabolic Activation: NONE, Method: SUSPENSION/PLATE) “active; positive. reevaluation of results: equivocal”; (Test System: Mouse lymphoma, Strain/Indicator: L5178Y (tk+/tk-), Metabolic Activation: Rat, Liver, S-9, Aroclor 1254, Method: Suspension/plate) “inactive; inconclusive (previous evaluation negative)”.
`[O-][n+]1ccc2cnncc2c1`: the mutagenic call runs as follows: under setting [4], “active; positive”; (Test System: AMES SALMONELLA TYPHIMURIUM, Strain/Indicator: TA98, Metabolic Activation: RAT, LIVER, S-9, PCB, Method: PREINCUBATION) “active; positive”; under setting [5], “inactive; negative”; (Test System: AMES SALMONELLA TYPHIMURIUM, Strain/Indicator: TA100, Metabolic Activation: RAT, LIVER, S-9, PCB, Method: PREINCUBATION) “active; positive”.
On to `OCCOCCO`, for which the mutagenic call (Test System: AMES SALMONELLA TYPHIMURIUM, Strain/Indicator: TA97A, Metabolic Activation: NONE) was “inactive; negative”; the mutagenic call (Test System: AMES SALMONELLA TYPHIMURIUM, Strain/Indicator: TA97A, Metabolic Activation: RAT, LIVER, S-9, AROCLOR 1254) is “inactive; negative”; the mutagenic call (Test System: AMES SALMONELLA TYPHIMURIUM, Strain/Indicator: TA98, Metabolic Activation: HAMSTER, LIVER, S-9, AROCLOR 1254 (10%), Method: PREINCUBATION) is “inactive; negative”; the mutagenic call (Test System: AMES SALMONELLA TYPHIMURIUM, Strain/Indicator: TA98, Metabolic Activation: NONE) is “inactive; negative”; the mutagenic call under setting [4] is “inactive; negative”; the mutagenic call (Test System: AMES SALMONELLA TYPHIMURIUM, Strain/Indicator: TA98, Metabolic Activation: RAT, LIVER, S-9, AROCLOR 1254) was “inactive; negative”. For the same molecule, the mutagenic call runs as follows: (Test System: AMES SALMONELLA TYPHIMURIUM, Strain/Indicator: TA98, Metabolic Activation: RAT, LIVER, S-9, AROCLOR 1254 (10%), Method: PREINCUBATION) “inactive; negative”; (Test System: AMES SALMONELLA TYPHIMURIUM, Strain/Indicator: TA100, Metabolic Activation: HAMSTER, LIVER, S-9, AROCLOR 1254 (10%), Method: PREINCUBATION) “inactive; negative”; (Test System: AMES SALMONELLA TYPHIMURIUM, Strain/Indicator: TA100, Metabolic Activation: NONE) “inactive; negative”; under setting [5], “inactive; negative”; (Test System: AMES SALMONELLA TYPHIMURIUM, Strain/Indicator: TA100, Metabolic Activation: RAT, LIVER, S-9, AROCLOR 1254) “inactive; negative”; (Test System: AMES SALMONELLA TYPHIMURIUM, Strain/Indicator: TA100, Metabolic Activation: RAT, LIVER, S-9, AROCLOR 1254 (10%), Method: PREINCUBATION) “inactive; negative”. Moreover, the mutagenic call is “inactive; negative” (Test System: AMES SALMONELLA TYPHIMURIUM, Strain/Indicator: TA102, Metabolic Activation: NONE); “inactive; negative” (Test System: AMES SALMONELLA TYPHIMURIUM, Strain/Indicator: TA102, Metabolic Activation: RAT, LIVER, S-9, AROCLOR 1254); “inactive; negative” (Test System: AMES SALMONELLA TYPHIMURIUM, Strain/Indicator: TA1535, Metabolic Activation: HAMSTER, LIVER, S-9, AROCLOR 1254 (10%), Method: PREINCUBATION); “inactive; negative” (Test System: AMES SALMONELLA TYPHIMURIUM, Strain/Indicator: TA1535, Metabolic Activation: NONE, Method: PREINCUBATION); “inactive; negative” (Test System: AMES SALMONELLA TYPHIMURIUM, Strain/Indicator: TA1535, Metabolic Activation: RAT, LIVER, S-9, AROCLOR 1254 (10%), Method: PREINCUBATION); “inactive; negative” (Test System: AMES SALMONELLA TYPHIMURIUM, Strain/Indicator: TA1537, Metabolic Activation: HAMSTER, LIVER, S-9, AROCLOR 1254 (10%), Method: PREINCUBATION). Moreover, the mutagenic call is “inactive; negative” (Test System: AMES SALMONELLA TYPHIMURIUM, Strain/Indicator: TA1537, Metabolic Activation: NONE, Method: PREINCUBATION) and “inactive; negative” (Test System: AMES SALMONELLA TYPHIMURIUM, Strain/Indicator: TA1537, Metabolic Activation: RAT, LIVER, S-9, AROCLOR 1254 (10%), Method: PREINCUBATION).
For the molecule `O/N=C/C=N/O`, the mutagenic call is “inactive; negative” (Test System: AMES SALMONELLA TYPHIMURIUM, Strain/Indicator: TA102, Metabolic Activation: RAT, LIVER, S-9, PHENOBARBITAL AND 5,6-BENZOFLAVONE, Method: STANDARD PLATE); “inactive; negative” (Test System: AMES SALMONELLA TYPHIMURIUM, Strain/Indicator: TA2638, Metabolic Activation: RAT, LIVER, S-9, PHENOBARBITAL AND 5,6-BENZOFLAVONE, Method: STANDARD PLATE); “inactive; negative” (Test System: E. COLI, Strain/Indicator: WP2 (PKM101), Metabolic Activation: RAT, LIVER, S-9, PHENOBARBITAL AND 5,6-BENZOFLAVONE, Method: STANDARD PLATE); “active; positive” (Test System: E. COLI, Strain/Indicator: WP2 UVRA (PKM101), Metabolic Activation: RAT, LIVER, S-9, PHENOBARBITAL AND 5,6-BENZOFLAVONE, Method: STANDARD PLATE).
On to `CN(C)c1ccc(C(=C2C=CC(=N)C=C2)c2ccc(N(C)C)cc2)cc1`, for which the mutagenic call by setting is: under setting [1], “inactive; negative”; (Test System: AMES SALMONELLA TYPHIMURIUM, Strain/Indicator: TA97, Metabolic Activation: RAT, LIVER, S-9, AROCLOR 1254, Method: STANDARD PLATE) “inactive; negative”; under setting [2], “inactive; negative”; under setting [6], “inactive; negative”; under setting [3], “inactive; negative”; under setting [7], “inactive; negative”. Moreover, the mutagenic call is, setting by setting: (Test System: AMES SALMONELLA TYPHIMURIUM, Strain/Indicator: TA104, Metabolic Activation: NONE, Method: STANDARD PLATE) “inactive; negative”; (Test System: AMES SALMONELLA TYPHIMURIUM, Strain/Indicator: TA104, Metabolic Activation: RAT, LIVER, S-9, AROCLOR 1254, Method: STANDARD PLATE) “inactive; negative”.
In the case of `Nc1ccc(Cl)c(Cl)c1Cl`, the mutagenic call under setting [2] was “inactive; negative”, the mutagenic call under setting [6] is “inactive; negative”, the mutagenic call under setting [3] is “inactive; negative” and the mutagenic call under setting [7] is “inactive; negative”.
Take `COC(=O)c1cc2ccc3cccnc3c2[nH]1`: the mutagenic call is, setting by setting: under setting [2], “inactive; negative”; (Test System: E. COLI, Strain/Indicator: WP2 TM9, Metabolic Activation: NONE, Method: STANDARD PLATE) “inactive; negative”.
